Test results taken from patent publication US9649295B2, “Chemical inhibitors of soluble adenylyl cyclase (sAC)” (Cornell Research Foundation, Inc., priority 2004, dated 2017).
“Also recorded” adds a separate entry of the source.

What was measured:
Rap1 activation = assay: NGF induced Rap1 activation in PC12 cells; type: cell-based; settings: 15 minutes, KH7 50 μM
Protocol: FIG. 18 illustrates that NGF induced Rap1 activation is blocked by KH7 and rescued by membrane permeable cAMP. PC12 cells were stimulated with or without nerve growth factor (NGF) for 15 minutes in the presence or absence of KH7 (50 μM) and 1 mM 8Br-cAMP.

tmACs = assay: adenylyl cyclase activity in forskolin stimulated INS-1E cell lysate; settings: forskolin (10 μM) stimulated INS-1E
Protocol: In vitro adenylyl cyclase assays were performed on purified recombinant human sACt protein as previously described in Litvin et al., “Kinetic Properties of “Soluble” Adenylyl Cyclase.

[1] = glucose tolerance test in C57BL/6 mice; type: in vivo, mouse
Protocol: C57B1/6 adult male mice were maintained on a 12 hour light/dark cycle, with free access to water and standard laboratory chow (Research Animal Resource Center, Weill Medical College of Cornell University). Animals were treated in accordance with our institutions guidelines. After a 14-16 hour overnight fast with free access to water, blood was removed from the tail vein for glucose (Hemocue B-Glucose Microcuvette and Analyzer; Hemocue, Inc., Lake Forest, Calif.) and insulin (Rat/Mouse Insulin ELISA Kit; Linco Research) measurements. Mice then received an i.p injection of 100 mM KH7 (100 μmoles/kg) or vehicle control. Twenty minutes later, both groups were injected i.p. with 1 g/kg glucose (20% solution). Blood samples were taken from the tail vein at times indicated, and glucose and insulin were quantitated according to manufacturer's instructions.

With CC(Sc1nc2ccccc2[nH]1)C(=O)N/N=C/c1cc(Br)ccc1O (centres unmarked) [KH7] the “effect on NGF induced Rap1 activation” value (Rap1 activation) was “block NGF induced Rap1 activation; also recorded: blocked”, the “effect on tmACs” value (tmACs) was “inert towards tmACs” and the “glucose-induced serum insulin release” value ([1]; 100 μmoles/kg KH7 i.p., 1 g/kg glucose i.p.) was “no statistically significant glucose-induced insulin release was detected”. The glucose tolerance ([1]; 100 μmoles/kg [49 mg/kg] KH7 i.p., 1 g/kg glucose i.p.) was “glucose intolerant” and the “glucose tolerance test one week after injection” value ([1]; one week after KH7, no further drug, n=2) was “normal glucose tolerance and insulin response”.
